Data on 14 compounds can be found in patent publication US20250353864A1, “INDAZOLE CONTAINING MACROCYCLES AND THEIR USE” (BLOSSOMHILL THERAPEUTICS, INC., priority 2022, published 2025).

What all share (assay type): biochemical
For one experiment, the target named is EGFR WT (Homo sapiens (Human), UniProt P00533). The experiment is described as follows: HotSpot radiometric kinase assay (Reaction Biology), EGFR WT. To be noted: 10 μM ATP. The method, then:
(§1) Biochemical Assays for Inhibition of Wild-Type and Mutant EGFRs
(§2) Briefly, specific kinase/substrate pairs along with required cofactors were prepared in reaction buffer; 20 mM Hepes pH 7.5, 10 mM […], 1 mM EGTA, 0.02% Brij35, 0.02 mg/ml BSA, 0.1 mM Na3VO4, 2 mM DTT, 1% DMSO. Compounds were delivered into the reaction, followed […] later by addition of a mixture of ATP (Sigma, St. Louis MO) and ^33P ATP (Perkin Elmer, Waltham MA) to a final concentration of 10 μM. Reactions were carried out at room temperature for 120 min, followed by spotting of the reactions onto P81 ion exchange filter paper (Whatman Inc., Piscataway, NJ). Unbound phosphate was removed by extensive washing of filters in 0.75% phosphoric acid. […] IC50 values and curve fits were obtained using Prism (GraphPad Software).

In experiment [1] the target is EGFR L858R/T790M/C797S mutant (Homo sapiens (Human), UniProt P00533, C797S/L858R/T790M). Briefly: HotSpot radiometric kinase assay, EGFR L858R/T790M/C797S mutant. To be noted: 10 μM ATP. The method, then:
as §1, §2

The target in the next experiment is EGFR L858R mutant (Homo sapiens (Human), UniProt P00533, L858R). Briefly: HotSpot radiometric kinase assay, EGFR L858R mutant. To be noted: 10 μM ATP. The method, then: as §1, §2
For experiment [2], the target named is EGFR Δ746-750/C797S mutant (Homo sapiens (Human), UniProt P00533, C797S/DEL746-750). The experiment is described as follows: HotSpot radiometric kinase assay, EGFR Δ746-750/C797S mutant. To be noted: 10 μM ATP. The method, then: as §1, §2
Another experiment concerns the target EGFR L858R/T790M mutant (Homo sapiens (Human), UniProt P00533, L858R/T790M). Briefly: HotSpot radiometric kinase assay, EGFR L858R/T790M mutant. To be noted: 10 μM ATP. The method, then: as §1, §2
In another experiment the target is EGFR Δ746-750 mutant (Homo sapiens (Human), UniProt P00533, DEL746-750). The experiment is described as follows: HotSpot radiometric kinase assay, EGFR Δ746-750 mutant. As to conditions: 10 μM ATP. The method, then:
as §1, §2

A further experiment deals with EGFR (D770_N771insNPG) (Homo sapiens (Human), UniProt P00533, INS770NPG). The experiment is described as follows: HotSpot radiometric kinase assay, EGFR (D770_N771insNPG). As to conditions: 10 μM ATP, read-out: EGFR (Δ770_N771insNPG) IC50. The method, then: as §1, §2

Sequence of EGFR WT (P00533 25-1210): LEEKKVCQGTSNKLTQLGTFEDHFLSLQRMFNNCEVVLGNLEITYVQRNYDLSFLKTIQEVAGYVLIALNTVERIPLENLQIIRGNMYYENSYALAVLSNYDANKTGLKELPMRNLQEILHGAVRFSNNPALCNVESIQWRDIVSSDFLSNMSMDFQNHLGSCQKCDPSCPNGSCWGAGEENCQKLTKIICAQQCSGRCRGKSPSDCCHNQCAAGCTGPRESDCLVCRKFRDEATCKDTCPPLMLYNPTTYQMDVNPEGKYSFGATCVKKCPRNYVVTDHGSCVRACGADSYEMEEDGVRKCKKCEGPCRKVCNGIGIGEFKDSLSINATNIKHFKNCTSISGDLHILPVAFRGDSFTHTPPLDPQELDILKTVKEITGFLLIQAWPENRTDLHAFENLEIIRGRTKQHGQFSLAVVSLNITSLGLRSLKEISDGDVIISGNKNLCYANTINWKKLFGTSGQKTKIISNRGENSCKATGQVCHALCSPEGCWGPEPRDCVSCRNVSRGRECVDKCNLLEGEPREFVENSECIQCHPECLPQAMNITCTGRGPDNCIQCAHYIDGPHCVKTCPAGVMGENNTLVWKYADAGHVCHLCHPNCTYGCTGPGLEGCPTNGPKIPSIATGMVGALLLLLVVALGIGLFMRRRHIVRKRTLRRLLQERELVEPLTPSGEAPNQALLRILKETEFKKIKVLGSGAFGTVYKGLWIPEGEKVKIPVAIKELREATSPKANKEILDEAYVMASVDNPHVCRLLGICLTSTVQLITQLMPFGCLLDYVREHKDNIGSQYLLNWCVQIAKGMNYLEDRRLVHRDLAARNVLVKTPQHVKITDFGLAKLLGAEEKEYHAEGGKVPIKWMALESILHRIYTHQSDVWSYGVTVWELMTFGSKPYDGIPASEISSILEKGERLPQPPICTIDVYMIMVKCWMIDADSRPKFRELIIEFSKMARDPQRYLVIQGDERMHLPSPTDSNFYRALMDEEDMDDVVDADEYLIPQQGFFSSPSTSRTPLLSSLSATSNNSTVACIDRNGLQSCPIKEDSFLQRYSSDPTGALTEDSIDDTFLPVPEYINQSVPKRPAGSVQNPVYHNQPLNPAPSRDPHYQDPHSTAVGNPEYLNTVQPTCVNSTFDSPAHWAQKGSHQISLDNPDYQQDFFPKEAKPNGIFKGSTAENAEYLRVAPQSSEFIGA
Sequence of EGFR L858R mutant (P00533 25-1210 L858R): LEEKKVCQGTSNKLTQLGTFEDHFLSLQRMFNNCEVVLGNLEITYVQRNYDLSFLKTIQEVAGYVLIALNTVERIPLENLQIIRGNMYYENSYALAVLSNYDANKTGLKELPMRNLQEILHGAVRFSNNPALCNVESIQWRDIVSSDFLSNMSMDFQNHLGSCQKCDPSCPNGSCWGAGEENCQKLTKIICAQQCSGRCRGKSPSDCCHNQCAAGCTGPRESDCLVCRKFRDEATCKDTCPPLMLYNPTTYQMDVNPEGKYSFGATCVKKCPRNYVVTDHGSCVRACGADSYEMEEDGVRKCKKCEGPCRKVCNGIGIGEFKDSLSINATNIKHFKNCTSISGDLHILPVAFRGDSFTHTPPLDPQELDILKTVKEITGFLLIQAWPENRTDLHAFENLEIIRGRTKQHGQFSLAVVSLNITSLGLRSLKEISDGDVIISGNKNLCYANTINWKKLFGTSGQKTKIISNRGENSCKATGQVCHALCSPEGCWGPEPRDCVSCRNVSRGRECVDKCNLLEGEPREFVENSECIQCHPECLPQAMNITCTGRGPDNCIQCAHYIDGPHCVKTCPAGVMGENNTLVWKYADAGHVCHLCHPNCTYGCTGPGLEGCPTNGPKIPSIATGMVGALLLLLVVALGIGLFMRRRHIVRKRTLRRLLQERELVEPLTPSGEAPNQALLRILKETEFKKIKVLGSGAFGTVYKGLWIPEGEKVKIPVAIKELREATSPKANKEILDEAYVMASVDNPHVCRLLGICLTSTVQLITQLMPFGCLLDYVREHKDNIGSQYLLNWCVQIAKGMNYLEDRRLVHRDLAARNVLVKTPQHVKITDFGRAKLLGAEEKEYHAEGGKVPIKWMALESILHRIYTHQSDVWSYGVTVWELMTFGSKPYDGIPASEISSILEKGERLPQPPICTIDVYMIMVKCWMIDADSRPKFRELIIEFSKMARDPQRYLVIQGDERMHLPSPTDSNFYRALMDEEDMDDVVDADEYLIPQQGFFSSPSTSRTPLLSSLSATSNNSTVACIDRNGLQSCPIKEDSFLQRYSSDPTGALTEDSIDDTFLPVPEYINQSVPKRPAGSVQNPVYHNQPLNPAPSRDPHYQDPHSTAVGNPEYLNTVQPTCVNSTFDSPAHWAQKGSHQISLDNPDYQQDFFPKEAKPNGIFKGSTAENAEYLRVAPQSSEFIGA
Sequence of EGFR L858R/T790M/C797S mutant (P00533 25-1210 T790M/C797S/L858R): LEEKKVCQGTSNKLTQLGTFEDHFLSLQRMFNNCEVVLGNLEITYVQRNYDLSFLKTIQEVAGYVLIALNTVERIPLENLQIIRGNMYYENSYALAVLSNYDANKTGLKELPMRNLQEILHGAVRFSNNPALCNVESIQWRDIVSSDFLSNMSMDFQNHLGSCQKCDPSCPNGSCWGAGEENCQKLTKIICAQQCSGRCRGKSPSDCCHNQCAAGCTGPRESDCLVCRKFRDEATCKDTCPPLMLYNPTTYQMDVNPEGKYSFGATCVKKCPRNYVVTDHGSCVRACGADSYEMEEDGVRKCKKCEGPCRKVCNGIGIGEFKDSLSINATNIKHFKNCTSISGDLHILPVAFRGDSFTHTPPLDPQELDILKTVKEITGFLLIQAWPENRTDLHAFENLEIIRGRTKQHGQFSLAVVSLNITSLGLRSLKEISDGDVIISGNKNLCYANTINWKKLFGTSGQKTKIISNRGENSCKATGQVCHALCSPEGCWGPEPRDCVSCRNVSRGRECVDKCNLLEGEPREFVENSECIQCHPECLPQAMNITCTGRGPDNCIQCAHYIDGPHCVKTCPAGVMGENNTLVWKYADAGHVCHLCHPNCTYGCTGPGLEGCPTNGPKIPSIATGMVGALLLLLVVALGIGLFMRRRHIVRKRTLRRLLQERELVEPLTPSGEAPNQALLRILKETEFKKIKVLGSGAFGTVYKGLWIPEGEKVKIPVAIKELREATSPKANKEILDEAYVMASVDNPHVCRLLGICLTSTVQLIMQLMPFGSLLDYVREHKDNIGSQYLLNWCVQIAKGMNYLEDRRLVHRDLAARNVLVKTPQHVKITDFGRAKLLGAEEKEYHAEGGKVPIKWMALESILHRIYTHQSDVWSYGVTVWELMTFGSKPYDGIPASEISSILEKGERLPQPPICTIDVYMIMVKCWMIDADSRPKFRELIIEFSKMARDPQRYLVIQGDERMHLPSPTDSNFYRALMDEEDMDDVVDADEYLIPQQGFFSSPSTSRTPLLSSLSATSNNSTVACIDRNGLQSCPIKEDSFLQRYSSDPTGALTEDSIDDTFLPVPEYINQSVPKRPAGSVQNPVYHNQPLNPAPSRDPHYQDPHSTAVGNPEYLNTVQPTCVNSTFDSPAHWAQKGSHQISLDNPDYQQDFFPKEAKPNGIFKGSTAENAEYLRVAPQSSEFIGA
Sequence of EGFR Δ746-750 mutant (P00533 other isoform, or with tags, fused parts or gaps del 1-668/del 746-750 limits assumed): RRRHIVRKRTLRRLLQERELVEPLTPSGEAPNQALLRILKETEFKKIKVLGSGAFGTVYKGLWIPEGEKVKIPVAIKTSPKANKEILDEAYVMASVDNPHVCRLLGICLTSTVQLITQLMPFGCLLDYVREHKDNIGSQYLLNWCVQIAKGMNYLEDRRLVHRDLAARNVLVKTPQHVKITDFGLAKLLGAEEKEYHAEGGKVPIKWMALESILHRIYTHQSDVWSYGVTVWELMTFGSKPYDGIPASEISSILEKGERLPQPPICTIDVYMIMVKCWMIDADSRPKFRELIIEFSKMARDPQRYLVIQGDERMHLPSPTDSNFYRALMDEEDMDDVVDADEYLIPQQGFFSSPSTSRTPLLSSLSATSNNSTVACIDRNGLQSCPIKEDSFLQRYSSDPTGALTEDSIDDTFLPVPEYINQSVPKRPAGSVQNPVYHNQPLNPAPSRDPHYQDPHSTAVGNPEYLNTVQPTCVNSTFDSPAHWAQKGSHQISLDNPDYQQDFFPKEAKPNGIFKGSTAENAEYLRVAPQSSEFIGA
Sequence of EGFR Δ746-750/C797S mutant (P00533 other isoform, or with tags, fused parts or gaps C797S/del 1-668/del 746-750 limits assumed): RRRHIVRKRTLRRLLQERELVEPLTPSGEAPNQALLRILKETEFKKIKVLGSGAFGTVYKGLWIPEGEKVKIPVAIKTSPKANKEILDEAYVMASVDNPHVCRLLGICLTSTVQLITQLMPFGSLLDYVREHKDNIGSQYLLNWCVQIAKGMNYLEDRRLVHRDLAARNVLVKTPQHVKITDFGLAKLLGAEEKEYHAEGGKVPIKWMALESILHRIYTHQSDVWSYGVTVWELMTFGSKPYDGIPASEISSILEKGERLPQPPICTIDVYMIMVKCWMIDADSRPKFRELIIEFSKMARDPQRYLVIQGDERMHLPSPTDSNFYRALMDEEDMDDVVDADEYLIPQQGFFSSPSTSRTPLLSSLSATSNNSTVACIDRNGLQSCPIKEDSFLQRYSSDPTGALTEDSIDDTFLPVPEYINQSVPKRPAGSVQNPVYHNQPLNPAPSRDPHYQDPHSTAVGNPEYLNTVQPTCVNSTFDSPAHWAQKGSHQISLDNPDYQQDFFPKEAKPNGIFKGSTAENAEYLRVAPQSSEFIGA

As usually defined, the IC50 is the concentration needed to halve the response being measured. In the case of `Cc1nn([C@H]2CNC[C@@H]2O)c2c1/C=C/c1n[nH]c3ccc(cc13)-c1cnn(C)c1OCCCO2` (racemic) [Example 74, (rac)-4-[(17E)-8,16-dimethyl-2,8,11,12-tetrahydro-10H,14H-3,5-etheno[1,5]dioxacyclopentadecino[10,11-c:15,14-c′:6,7-c″ ]tripyrazol-14-yl]pyrrolidin-3-ol], the IC50 against EGFR WT turned out to be 86 nM; in experiment [1] it was 15.8 nM; against EGFR L858R mutant, 36.1 nM; in experiment [2], 39.8 nM; against EGFR L858R/T790M mutant it was 12.5 nM; against EGFR Δ746-750 mutant, 74.1 nM. Also, the IC50 at EGFR (D770_N771insNPG) came to 109 nM.
As for `Cc1nn([C@H]2CN(C)C[C@@H]2O)c2c1/C=C/c1n[nH]c3ccc(cc13)-c1cnn(C)c1OCCCO2` (racemic) [Example 75, (rac)-4-[(17E)-8,16-dimethyl-2,8,11,12-tetrahydro-10H,14H-3,5-etheno[1,5]dioxacyclopentadecino[10,11-c:15,14-c′:6,7-c″]tripyrazol-14-yl]-1-methylpyrrolidin-3-ol], the IC50 stood at 295 nM on EGFR WT; 21.2 nM in experiment [1]; 55.9 nM at EGFR L858R mutant; 28.5 nM in experiment [2]; 17.5 nM against EGFR L858R/T790M mutant; 59.7 nM against EGFR Δ746-750 mutant. On EGFR (D770_N771insNPG), the IC50 was found to be 84.3 nM.
Regarding `Cc1nn([C@H]2CC[C@@H]2O)c2c1/C=C/c1n[nH]c3ccc(cc13)-c1cnn(C)c1OCCCO2` (racemic) [Example 78, (rac)-2-[(17E)-8,16-dimethyl-2,8,11,12-tetrahydro-10H,14H-3,5-etheno[1,5]dioxacyclopentadecino[10,11-c:15,14-c′:6,7-c″ ]tripyrazol-14-yl]cyclobutan-1-ol], the IC50 on EGFR WT was above 1000 nM; in experiment [1], 296 nM; against EGFR L858R mutant, 688 nM; in experiment [2] it was 775 nM; against EGFR L858R/T790M mutant, 206 nM; against EGFR Δ746-750 mutant, 212 nM. Also, on EGFR (D770_N771insNPG), the IC50 stood at 910 nM.
Turning to `Cc1nn([C@H]2CCNC[C@@H]2O)c2c1/C=C/c1n[nH]c3ccc(cc13)-c1cnn(C)c1OCCCO2` (racemic) [Example 80, (rac)-4-[(17E)-8,16-dimethyl-2,8,11,12-tetrahydro-10H,14H-3,5-etheno[1,5]dioxacyclopentadecino[10,11-c:15,14-c′:6,7-c′]tripyrazol-14-yl]piperidin-3-ol], the IC50 is 50.8 nM at EGFR WT; 11.2 nM in experiment [1]; 24.7 nM against EGFR L858R mutant; 39.2 nM in experiment [2]; 4.37 nM against EGFR L858R/T790M mutant; 38.7 nM against EGFR Δ746-750 mutant. In addition, the IC50 at EGFR (D770_N771insNPG) was 59.1 nM.
For the compound `Cc1c2c(nn1[C@H]1CCNC[C@@H]1O)OCCCOc1c(cnn1C)-c1ccc3[nH]nc(c3c1)/C=C/2` (racemic) [Example 81, (rac)-4-[(17E)-8,16-dimethyl-2,8,11,12-tetrahydro-10H,15H-3,5-etheno[1,5]dioxacyclopentadecino[10,11-c:15,14-c′:6,7-c″ ]tripyrazol-15-yl]piperidin-3-ol], the IC50 amounted to 43.8 nM on EGFR WT; 7.42 nM in experiment [1]; 16.8 nM on EGFR L858R mutant; 33.4 nM in experiment [2]; 1.7 nM at EGFR L858R/T790M mutant; 29.6 nM against EGFR Δ746-750 mutant. For the same compound, the IC50 on EGFR (D770_N771insNPG) came out at 40.3 nM.
Consider `Cc1nn([C@H]2CCN(C)C[C@@H]2O)c2c1/C=C/c1n[nH]c3ccc(cc13)-c1cnn(C)c1OCCCO2` (racemic) [Example 82, (rac)-4-[(17E)-8,16-dimethyl-2,8,11,12-tetrahydro-10H,14H-3,5-etheno[1,5]dioxacyclopentadecino[10,11-c:15,14-c′:6,7-c′]tripyrazol-14-yl]-1-methylpiperidin-3-ol], for which the IC50 on EGFR WT worked out at 67.8 nM; in experiment [1], 5.77 nM; on EGFR L858R mutant, 15.3 nM; in experiment [2], 29.8 nM; on EGFR L858R/T790M mutant, 1.24 nM; against EGFR Δ746-750 mutant it was 27.9 nM. The IC50 at EGFR (D770_N771insNPG) was 56.7 nM.
For the compound `Cc1nn([C@H]2CCOC[C@@H]2O)c2c1/C=C/c1n[nH]c3ccc(cc13)-c1cnn(C)c1OCCCO2` (racemic) [Example 85, (rac)-1,5-anhydr-3o-2,3-dideoxy-3-[(17E)-8,16-dimethyl-2,8,11,12-tetrahydro-10H,14H-3,5-etheno[1,5]dioxacyclopentadecino[10,11-c:15,14-c′:6,7-c″ ]tripyrazol-14-yl]-L-threo-pentitol], the IC50 (against EGFR WT; in experiment [1]; at EGFR L858R mutant; in experiment [2]; at EGFR L858R/T790M mutant; at EGFR Δ746-750 mutant) was above 1000 nM in each case. Also, on EGFR (D770_N771insNPG), the IC50 is above 1000 nM.
Consider `Cc1nn([C@H]2COCC[C@@H]2O)c2c1/C=C/c1n[nH]c3ccc(cc13)-c1cnn(C)c1OCCCO2` (racemic) [Example 86, (rac)-1,5-anhydro-2,4-dideoxy-2-[(17E)-8,16-dimethyl-2,8,11,12-tetrahydro-10H,14H-3,5-etheno[1,5]dioxacyclopentadecino[10,11-c:15,14-c′:6,7-c″ ]tripyrazol-14-yl]-L-threo-pentitol], for which the IC50 (at EGFR WT; in experiment [1]; on EGFR L858R mutant; in experiment [2]; against EGFR L858R/T790M mutant; at EGFR Δ746-750 mutant) was above 1000 nM each time. Moreover, the IC50 on EGFR (D770_N771insNPG) was above 1000 nM.
With `Cc1c2c(nn1[C@H]1CCOC[C@@H]1O)OCCCOc1c(cnn1C)-c1ccc3[nH]nc(c3c1)/C=C/2` (racemic) [Example 87, (rac)-1,5-anhydro-2,3-dideoxy-3-[(17E)-8,16-dimethyl-2,8,11,12-tetrahydro-10H,15H-3,5-etheno[1,5]dioxacyclopentadecino[10,11-c:15,14-c′:6,7-c″ ]tripyrazol-15-yl]-L-threo-pentitol], the IC50 (on EGFR WT; in experiment [1]; at EGFR L858R mutant; in experiment [2]; against EGFR L858R/T790M mutant; against EGFR Δ746-750 mutant) was above 1000 nM throughout. Besides, the IC50 at EGFR (D770_N771insNPG) was above 1000 nM.
For `Cc1nn([C@H]2CN(C)C[C@@H]2O)c2c1/C=C/c1n[nH]c3ccc(cc13)-c1cnn(C)c1CN(C)CCO2` (racemic) [Example 98, (rac)-(3S,4S)-1-methyl-4-[(17E)-8,10,16-trimethyl-2,8,9,10,11,12-hexahydro-14H-3,5-ethenotripyrazolo[3,4-f:4′,3′-j:4″,3″-n][1,4]oxazacyclopentadecin-14-yl]pyrrolidin-3-ol], the IC50 stood at 119 nM at EGFR WT; 12.1 nM in experiment [1]; 41.1 nM against EGFR L858R mutant; 27 nM in experiment [2]; 3.56 nM against EGFR L858R/T790M mutant; 84.9 nM at EGFR Δ746-750 mutant. On EGFR (D770_N771insNPG), the IC50 was found to be 148 nM.
As for `CCOc1nn(CCO)c2c1/C=C/c1n[nH]c3ccc(cc13)-c1cnn(C)c1O[C@H]1CN(C)C[C@@H]1N(C)C2` (single isomer, unassigned) [Ex. 270], the IC50 at EGFR WT was 543 nM; in experiment [1] it was 1.1 nM; at EGFR L858R mutant it was 161 nM; in experiment [2], 20.5 nM; against EGFR L858R/T790M mutant it was 4.58 nM; against EGFR Δ746-750 mutant it was 93.6 nM. In addition, the IC50 at EGFR (D770_N771insNPG) stood at 635 nM.
In the case of `CCc1nn(C)c2c1/C=C/c1n[nH]c3ccc(cc13)-c1cnn(C)c1OCC[C@@H](C)O2` [Ex. 15, (12R,17E)-16-ethyl-8,12,14-trimethyl-2,11,12,14-tetrahydro-8H,10H-3,5-etheno[1,5]dioxacyclopentadecino[10,11-c:15,14-c′:6,7-c″]tripyrazole], the IC50 was determined as 419 nM against EGFR WT; 26.4 nM in experiment [1]; 105 nM at EGFR L858R mutant; 27.5 nM in experiment [2]; 139 nM against EGFR Δ746-750 mutant; 286 nM on EGFR (D770_N771insNPG).
On to `CCc1nn(C)c2c1/C=C/c1n[nH]c3ccc(cc13)-c1cnn(C)c1O[C@@H](C)CCO2` [Ex. 37, (10S,17E)-16-ethyl-8,10,14-trimethyl-2,11,12,14-tetrahydro-8H,10H-3,5-etheno[1,5]dioxacyclopentadecino[10,11-c:15,14-c′:6,7-c″]tripyrazole], for which the IC50 against EGFR WT came out at 157 nM; in experiment [1], 17.3 nM; on EGFR L858R mutant it was 41.8 nM; in experiment [2] it was 49.9 nM; on EGFR Δ746-750 mutant, 64 nM; on EGFR (D770_N771insNPG), 212 nM.
Take `Cc1c2c(nn1C)CN(C)CCOc1c(cnn1C)-c1ccc3[nH]nc(c3c1)/C=C/2` [Example 44, (17E)-8,12,15,16-tetramethyl-2,10,11,12,13,15-hexahydro-8H-3,5-ethenotripyrazolo[3,4-f:3′,4′-j:4″,3″- n][1,4]oxazacyclopentadecine]: the IC50 is 1460 nM against EGFR WT; 27 nM in experiment [1]; 285 nM against EGFR L858R mutant; 130 nM in experiment [2]; 112 nM against EGFR Δ746-750 mutant; above 1000 nM at EGFR (D770_N771insNPG).
